Test results taken from patent US12583839B2, “PD-L1 antagonist compound” (ADLAI NORTYE BIOPHARMA CO., LTD., priority 2019, dated 2026).

Target: T1, PD-1/PD-L1 (Homo sapiens, UniProt Q9NZQ7)
T1 construct: 60535 (PD-1/NFAT-Reporter-Jurkat); host or cells: CHO cells expressing PD-L1; Jurkat cells expressing PD-1
Test: Detection of biological activity of PD-1/PD-L1 signaling inhibition at the cellular level (NFAT luciferase reporter, PD-1/NFAT-Reporter-Jurkat cells co-cultured with TCR activator/PD-L1-CHO cells)
Assay type: cell-based
Conditions: PD-1/NFAT-Reporter-Jurkat + TCR activator/PD-L1-CHO co-culture, 6 hours; Atezolizumab as positive control
From the text: Detection of Biological Activity of PD-1/PD-L1 Signaling Inhibition at the Cellular Level
This detection method is used for evaluating the biological activity of the compounds described in the present invention at the cellular level.
This detection method uses the luciferase reporter gene method to detect the biological activity of the compound on the inhibition of PD-1/PD-L1 signal at the cellular level. PD-1/NFAT—Reporter—Jurkat cells stably express human PD-1 and express the luciferase reporter gene regulated by NFAT elements; TCR activator/PD-L1-CHO cells stably express human PD-L1 and TCR activator elements. When the two cell lines were co-cultured, the binding of PD-1/PD-L1 inhibited the TCR signaling pathway, thereby inhibiting the expression of the downstream NFAT-controlled luciferase reporter gene. When PD-1/PD-L1 antibody or inhibitor is added, this inhibitory effect is reversed and luciferase is expressed, so that the effect of PD-1/PD-L1 inhibitor on luciferase activity can be detected.
PD-1/NFAT—Reporter—Jurkat cell (Cat: 60535) and TCR activator/PD-L1-CHO cell (Cat: 60536) were purchased from BPS Bioscience. Anti-human PD-L1 antibody (Atezolizumab, Cat: A2004) was purchased from Selleck; luciferase reporter gene expression detection kit (ONE-Glo™ Luciferase Assay System, Cat: E6120) was purchased from Promega; multifunction plate reader (SpectraMax i3x) was purchased from Molecular Devices.
The PD-1/NFAT—Reporter—Jurkat cells and TCR activator/PD-L1-CHO cells were cultured according to the routine cell culture protocol.
TCR activator/PD-L1-CHO cells were harvested and seeded into a 96-well culture plate at 35,000 cells/well in a medium volume of 100 μl and incubated overnight at 37° C. The next day, the medium was discarded, compound was added and incubated for 30 minutes, while a solvent control (dimethyl sulfoxide, DMSO, final concentration of 0.1%) and PD-L1 antibody (Atezolizumab, final concentration of about 10 nM) as positive controls were set. PD-1/NFAT-reporter-Jurkat cells were then added. After culturing for 6 hours, the luciferase activity was detected according to the instructions of the luciferase detection reagent.
Using PD-L1 antibody as a positive control, calculate the inhibition rate of PD-1/PD-L1 binding of the test compound (%)=(chemiluminescence value of compound treated wells/average value of chemiluminescence value of solvent control wells−1)/(average value of chemiluminescence value of PD-L1 antibody well/average value of chemiluminescence value of solvent control well−1)×100%.
According to the above detection method, the compounds of the present invention were evaluated for their biological activity at the cellular level, and the activity results are shown in the following table.

T1 sequence (Q9NZQ7 19-290): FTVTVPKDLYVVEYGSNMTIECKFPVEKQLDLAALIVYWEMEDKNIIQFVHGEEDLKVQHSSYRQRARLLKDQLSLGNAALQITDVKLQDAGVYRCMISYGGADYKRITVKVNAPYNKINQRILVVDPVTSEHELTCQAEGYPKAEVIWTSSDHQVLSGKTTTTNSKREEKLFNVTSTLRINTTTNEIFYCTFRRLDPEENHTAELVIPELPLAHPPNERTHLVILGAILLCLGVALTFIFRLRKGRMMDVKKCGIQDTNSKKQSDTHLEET

Row | EC50 | Compound
1 | 83 nM | N#Cc1cncc(COc2cc(Cn3ncc4c(-c5cccc(-c6ccc(CN7CC[C@@H](O)C7)cc6)c5Cl)cccc43)c(Cl)cc2CN[C@@H](CO)C(=O)O)c1 [Compound 1]
2 | 85 nM | Cc1c(-c2ccc(CNC[C@@H]3CCC(=O)N3)cc2)cccc1-c1cccc2c1cnn2Cc1cc(OCc2cncc(C#N)c2)c(CN[C@@H](CO)C(=O)O)cc1Cl [Compound 2]
3 | 395 nM | N#Cc1cncc(COc2cc(Cn3ncc4c(-c5cccc(-c6ccc(CN7CCOCC7)cc6)c5Cl)cccc43)c(Cl)cc2CN[C@@H](CO)C(=O)O)c1 [Compound 3]
4 | 206 nM | CN(CCO)Cc1ccc(-c2cccc(-c3cccc4c3cnn4Cc3cc(OCc4cncc(C#N)c4)c(CN[C@@H](CO)C(=O)O)cc3Cl)c2Cl)cc1 [Compound 4]
5 | 58 nM | N#Cc1cncc(COc2cc(Cn3ncc4c(-c5cccc(-c6ccc(CNCCO)cc6)c5Cl)cccc43)c(Cl)cc2CN[C@@H](CO)C(=O)O)c1 [Compound 5]
6 | 228 nM | CN(CCO[C@H]1CCOC1)Cc1ccc(-c2cccc(-c3cccc4c3cnn4Cc3cc(OCc4cncc(C#N)c4)c(CN[C@@H](CO)C(=O)O)cc3Cl)c2Cl)cc1 [Compound 6]
7 | 161 nM | CN1C(=O)CC[C@H]1CNCc1ccc(-c2cccc(-c3cccc4c3cnn4Cc3cc(OCc4cncc(C#N)c4)c(CN[C@@H](CO)C(=O)O)cc3Cl)c2Cl)cc1 [Compound 7]
8 | 31 nM | COc1cc(-c2cccc(-c3cccc4c3cnn4Cc3cc(OCc4cncc(C#N)c4)c(CN[C@@H](CO)C(=O)O)cc3Cl)c2Cl)ccc1CNC[C@@H]1CCC(=O)N1 [Compound 8]
9 | 591 nM | N#Cc1cncc(COc2cc(Cn3ncc4c(-c5cccc(-c6ccc(CNC[C@@H]7CCC(=O)N7)cn6)c5Cl)cccc43)c(Cl)cc2CN[C@@H](CO)C(=O)O)c1 [Compound 9]
10 | 82 nM | N#Cc1cncc(COc2cc(Cn3ncc4c(-c5cccc(-c6ccc(CNC[C@@H]7CCC(=O)N7)nc6)c5Cl)cccc43)c(Cl)cc2CN[C@@H](CO)C(=O)O)c1 [Compound 10]
11 | 112 nM | COc1cc(CNC[C@@H]2CCC(=O)N2)ccc1-c1cccc(-c2cccc3c2cnn3Cc2cc(OCc3cncc(C#N)c3)c(CN[C@@H](CO)C(=O)O)cc2Cl)c1Cl [Compound 11]
12 | 255 nM | N#Cc1cncc(COc2cc(Cn3ncc4c(-c5cccc(-c6ccc(CNC[C@@H]7CCC(=O)N7)cc6)c5F)cccc43)c(Cl)cc2CN[C@@H](CO)C(=O)O)c1 [Compound 12]
13 | 116 nM | N#Cc1cncc(COc2cc(Cn3ncc4c(-c5cccc(-c6ccc(CNC[C@@H]7CCC(=O)N7)cc6)c5C#N)cccc43)c(Cl)cc2CN[C@@H](CO)C(=O)O)c1 [Compound 13]
14 | 339 nM | N#Cc1cncc(COc2cc(Cn3ncc4c(-c5cccc(-c6ccc(CNC[C@@H]7CCC(=O)N7)cc6)c5)cccc43)c(Cl)cc2CN[C@@H](CO)C(=O)O)c1 [Compound 14]
15 | 562 nM | N#Cc1cncc(COc2cc(Cn3ncc4c(-c5cccc(-c6ccc(CCN7CC[C@@H](O)C7)cc6)c5Cl)cccc43)c(Cl)cc2CN[C@@H](CO)C(=O)O)c1 [Compound 18]
16 | 510 nM | N#Cc1cncc(COc2cc(Cn3ncc4c(-c5cccc(-c6ccc(CCCN7CC[C@@H](O)C7)cc6)c5Cl)cccc43)c(Cl)cc2CN[C@@H](CO)C(=O)O)c1 [Compound 19]
17 | 89 nM | N#Cc1cncc(COc2cc(Cn3ncc4c(-c5cccc(-c6ccc(CNC[C@@H]7CCC(=O)N7)cc6)c5Cl)cccc43)c(Cl)cc2CNCC(=O)O)c1 [Compound 22]
18 | 512 nM | CC(C)OC(=O)[C@H](CO)NCc1cc(Cl)c(Cn2ncc3c(-c4cccc(-c5ccc(CNC[C@@H]6CCC(=O)N6)cc5)c4Cl)cccc32)cc1OCc1cncc(C#N)c1 [Compound 23]
19 | 54 nM | N#Cc1cncc(COc2cc(Cn3ncc4c(-c5cccc(-c6ccc(CNC[C@@H]7CCC(=O)N7)cc6)c5Cl)cccc43)c(Cl)cc2CNCCO)c1 [Compound 24]
20 | 128 nM | N#Cc1cncc(COc2cc(Cn3ncc4c(-c5cccc(-c6ccc(CNC[C@@H]7CCC(=O)N7)cc6)c5Cl)cccc43)c(Cl)cc2CN2CCC[C@H]2C(=O)O)c1 [Compound 25]
21 | 86 nM | CN(Cc1cc(Cl)c(Cn2ncc3c(-c4cccc(-c5ccc(CNC[C@@H]6CCC(=O)N6)cc5)c4Cl)cccc32)cc1OCc1cncc(C#N)c1)[C@@H](CO)C(=O)O [Compound 26]
22 | 133 nM | N#Cc1cncc(COc2cc(Cn3ncc4c(-c5cccc(-c6ccc(CNC[C@@H]7CCC(=O)N7)cc6)c5Cl)cccc43)c(Cl)cc2CN2CC[C@@H](C(=O)O)C2)c1 [Compound 27]

Row | EC50 | Compound
23 | 110 nM | COc1cc(-c2cccc(-c3cccc4c3cnn4Cc3cc(OCc4cncc(C#N)c4)c(CN[C@@H](CO)C(=O)OC(C)C)cc3Cl)c2Cl)ccc1CNC[C@@H]1CCC(=O)N1 [Compound 28]
24 | 66 nM | COc1nc(-c2cccc(-c3cccc4c3cnn4Cc3cc(OCc4cncc(C#N)c4)c(CNCCO)cc3Cl)c2Cl)ccc1CNC[C@@H]1CCC(=O)N1 [Compound 29]
25 | 82 nM | COc1cc(Cn2ncc3c(-c4cccc(-c5ccc(CNC[C@@H]6CCC(=O)N6)cc5)c4Cl)cccc32)c(Cl)cc1CN[C@@H](CO)C(=O)O [Compound 30]
26 | 82 nM | COc1cc(Cn2ncc3c(-c4cccc(-c5ccc(CNC[C@@H]6CCC(=O)N6)cc5)c4Cl)cccc32)c(Cl)cc1CNC[C@H](O)CC(=O)O [Compound 31]
27 | 244 nM | COc1cc(Cn2ncc3c(-c4cccc(-c5ccc(CNC[C@@H]6CCC(=O)N6)cc5)c4Cl)cccc32)c(Cl)cc1CNCC(=O)O [Compound 32]
28 | 511 nM | COc1cc(Cn2ncc3c(-c4cccc(-c5ccc(CNC[C@@H]6CCC(=O)N6)cc5)c4Cl)cccc32)c(Cl)cc1CN1CC[C@@H](C(=O)O)C1 [Compound 33]
29 | 859 nM | COc1cc(Cn2ncc3c(-c4cccc(-c5ccc(CNC[C@@H]6CCC(=O)N6)cc5)c4Cl)cccc32)c(Cl)cc1CN1CCC[C@@H](C(=O)O)C1 [Compound 35]
30 | 459 nM | COc1cc(Cn2ncc3c(-c4cccc(-c5ccc(CNC[C@@H]6CCC(=O)N6)cc5)c4Cl)cccc32)c(Cl)cc1CN1CCC[C@H](C(=O)O)C1 [Compound 36]
31 | 977 nM | COc1cc(Cn2ncc3c(-c4cccc(-c5ccc(CNC[C@@H]6CCC(=O)N6)cc5)c4Cl)cccc32)c(Cl)cc1CN1CCC(C(=O)O)CC1 [Compound 37]
32 | 809 nM | COc1cc(Cn2ncc3c(-c4cccc(-c5ccc(CNC[C@@H]6CCC(=O)N6)cc5)c4Cl)cccc32)c(Cl)cc1CN1CC(C(=O)O)C1 [Compound 38]
33 | 298 nM | COc1cc(Cn2ncc3c(-c4cccc(-c5ccc(CNC[C@@H]6CCC(=O)N6)cc5)c4Cl)cccc32)c(Cl)cc1CNCC1CCC(C(=O)O)CC1 (stereo partly shown) [Compound 39]
34 | 213 nM | COc1cc(Cn2ncc3c(-c4cccc(-c5ccc(CNC[C@@H]6CCC(=O)N6)cc5)c4Cl)cccc32)c(Cl)cc1CNC1CCC(C(=O)O)CC1 (stereo partly shown) [Compound 40]
35 | 295 nM | COc1cc(Cn2ncc3c(-c4cccc(-c5ccc(CNC[C@@H]6CCC(=O)N6)cc5)c4Cl)cccc32)c(Cl)cc1CNC1CCC(C(=O)O)CC1 (stereo partly shown) [Compound 41]
36 | 348 nM | COc1cc(Cn2ncc3c(-c4cccc(-c5ccc(CNC[C@@H]6CCC(=O)N6)cc5)c4Cl)cccc32)c(Cl)cc1CN1C[C@H](O)C[C@H]1C(=O)O [Compound 42]
37 | 537 nM | COc1cc(Cn2ncc3c(-c4cccc(-c5ccc(CNC[C@@H]6CCC(=O)N6)cc5)c4Cl)cccc32)c(Cl)cc1CN1CCC[C@H]1C(=O)O [Compound 43]
38 | 499 nM | COc1cc(Cn2ncc3c(-c4cccc(-c5ccc(CNC[C@@H]6CCC(=O)N6)cc5)c4Cl)cccc32)c(Cl)cc1CN(C)CC1CCC(C(=O)O)CC1 (stereo partly shown) [Compound 47]
39 | 654 nM | COc1cc(Cn2ncc3c(-c4cccc(-c5ccc(CNC[C@@H]6CCC(=O)N6)c(C)c5)c4Cl)cccc32)c(Cl)cc1CN1CC[C@@H](C(=O)O)C1 [Compound 48]
40 | 850 nM | COc1cc(Cn2ncc3c(-c4cccc(-c5ccc(CNC[C@@H]6CCC(=O)N6)c(Cl)c5)c4Cl)cccc32)c(Cl)cc1CN1CC[C@@H](C(=O)O)C1 [Compound 49]
41 | 692 nM | COc1cc(Cn2ncc3c(-c4cccc(-c5ccc(CNC[C@@H]6CCC(=O)N6)c(OC(F)(F)F)c5)c4Cl)cccc32)c(Cl)cc1CN1CC[C@@H](C(=O)O)C1 [Compound 51]
42 | 92 nM | COc1cc(-c2cccc(-c3cccc4c3cnn4Cc3cc(OC)c(CN4CC[C@@H](C(=O)O)C4)cc3Cl)c2Cl)ccc1CNC[C@@H]1CCC(=O)N1 [Compound 52]
43 | 24 nM | COc1cc(-c2cccc(-c3cccc4c3cnn4Cc3cc(OC)c(CN[C@@H](CO)C(=O)O)cc3Cl)c2Cl)ccc1CNC[C@@H]1CCC(=O)N1 [Compound 53]
